# Source: paper PMC8194506 (Antiviral research, 2020)
# Settings: guinea pig, in vivo
smiles,measurement,value
CCN(CC)CCOc1ccc2c(c1)C(=O)c1cc(OCCN(CC)CC)ccc1-2 [Tilorone],well tolerated dose,≤ 60 mg/kg
